# From US20090105270A1, “Kinase inhibition and anticancer therapy” (priority 2007, published 2009)
# Legend:
# Plk3(h) = Plk3(h) (Homo sapiens, UniProt Q9H4B4); assay: Upstate kinase activity inhibition assay Plk3(h); conditions: 40 min, read-out: percentage of enzyme activity that remains
# EphA8(h) = molecular target: T1, EphA8(h) (Homo sapiens, UniProt P29322); assay: Upstate kinase activity inhibition assay EphA8(h); assay type: biochemical; conditions: 40 min; read-out: percentage of enzyme activity that remains
# T1 construct: purchased Upstate (KinaseProfiler service)
# PKCθ(h) = PKCθ(h) (Homo sapiens, UniProt Q04759); assay: Upstate kinase activity inhibition assay PKCθ(h); conditions: 40 min, read-out: percentage of enzyme activity that remains
# LIMK1(h) = molecular target: T2, LIMK1(h) (Homo sapiens, UniProt P53667); assay: Upstate kinase activity inhibition assay LIMK1(h); assay type: biochemical; conditions: 40 min; read-out: percentage of enzyme activity that remains
# T2 construct: purchased Upstate (KinaseProfiler service)
# BrSK1(h) = molecular target: T3, BrSK1(h) (Homo sapiens, UniProt Q8TDC3); assay: Upstate kinase activity inhibition assay BrSK1(h); assay type: biochemical; conditions: 40 min; read-out: percentage of enzyme activity that remains
# T3 construct: purchased Upstate (KinaseProfiler service)
# PRAK(h) = PRAK(h) (Homo sapiens, UniProt Q8IW41); assay: Upstate kinase activity inhibition assay PRAK(h); conditions: 40 min, read-out: percentage of enzyme activity that remains
# CHK2(h) = CHK2(h) (Homo sapiens, UniProt O96017); assay: Upstate kinase activity inhibition assay CHK2(h); conditions: 40 min, read-out: percentage of enzyme activity that remains
# CDK6/cyclinD3(h) = molecular target: T4, CDK6/cyclinD3(h) (Homo sapiens, UniProt Q00534); assay: Upstate kinase activity inhibition assay CDK6/cyclinD3(h); assay type: biochemical; conditions: 40 min; read-out: percentage of enzyme activity that remains
# T4 construct: purchased Upstate (KinaseProfiler service)
# Mnk2(h) = molecular target: T5, Mnk2(h) (Homo sapiens, UniProt Q9HBH9); assay: Upstate kinase activity inhibition assay Mnk2(h); assay type: biochemical; conditions: 40 min; read-out: percentage of enzyme activity that remains
# T5 construct: purchased Upstate (KinaseProfiler service)
# MSK2(h) = MSK2(h) (Homo sapiens, UniProt O75676); assay: Upstate kinase activity inhibition assay MSK2(h); conditions: 40 min, read-out: percentage of enzyme activity that remains
# PKCι(h) = PKCι(h) (Homo sapiens, UniProt P41743); assay: Upstate kinase activity inhibition assay PKCι(h); assay type: biochemical; conditions: 40 min; read-out: percentage of enzyme activity that remains
# MINK(h) = molecular target: T6, MINK(h) (Homo sapiens, UniProt Q8N4C8); assay: Upstate kinase activity inhibition assay MINK(h); assay type: biochemical; conditions: 40 min; read-out: percentage of enzyme activity that remains
# T6 construct: purchased Upstate (KinaseProfiler service)
# MLCK(h) = MLCK(h) (Homo sapiens, UniProt Q9H1R3); assay: Upstate kinase activity inhibition assay MLCK(h); conditions: 40 min, read-out: percentage of enzyme activity that remains
# ITK(h) = ITK(h) (Homo sapiens, UniProt Q08881); assay: Upstate kinase activity inhibition assay ITK(h); conditions: 4 μM Compound E
# Fms(h) = Fms(h) (Homo sapiens, UniProt P07333); assay: Upstate kinase activity inhibition assay Fms(h); conditions: 40 min, read-out: percentage of enzyme activity that remains
# JNK2α2(h) = JNK2α2(h) (Homo sapiens, UniProt P45984); assay: Upstate kinase activity inhibition assay JNK2α2(h)
# Rsk1(h) = molecular target: T7, Rsk1(h) (Homo sapiens, UniProt Q15418); assay: Upstate kinase activity inhibition assay Rsk1(h); assay type: biochemical; conditions: 40 min; read-out: percentage of enzyme activity that remains
# T7 construct: purchased Upstate (KinaseProfiler service)
# EphA5(h) = molecular target: T8, EphA5(h) (Homo sapiens, UniProt P54756); assay: Upstate kinase activity inhibition assay EphA5(h); assay type: biochemical; conditions: 4 μM Compound E
# T8 construct: purchased Upstate (KinaseProfiler service)
# PDGFRα(h) = PDGFRα(h) (Homo sapiens, UniProt P16234); assay: Upstate kinase activity inhibition assay PDGFRα(h); conditions: 40 min, read-out: percentage of enzyme activity that remains
# CK2(h) = CK2(h) (Homo sapiens, UniProt P68400); assay: Upstate kinase activity inhibition assay CK2(h); conditions: 40 min, read-out: percentage of enzyme activity that remains
# cKit(D816V)(h) = molecular target: T9, cKit(D816V)(h) (Homo sapiens, UniProt P10721, D816V); assay: Upstate kinase activity inhibition assay cKit(D816V)(h); assay type: biochemical; conditions: 40 min, read-out: percentage of enzyme activity that remains
# T9 construct: purchased Upstate (KinaseProfiler service)
# LOK(h) = LOK(h) (Homo sapiens, UniProt O94804); assay: Upstate kinase activity inhibition assay LOK(h)
# cSRC(h) = cSRC(h) (Homo sapiens, UniProt P12931); assay: Upstate kinase activity inhibition assay cSRC(h); assay type: biochemical; conditions: 40 min; read-out: percentage of enzyme activity that remains
# BRK(h) = BRK(h) (Homo sapiens, UniProt Q13882); assay: Upstate kinase activity inhibition assay BRK(h); conditions: 40 min, read-out: percentage of enzyme activity that remains
# Arg(h) = Arg(h) (Homo sapiens, UniProt P42684); assay: Upstate kinase activity inhibition assay Arg(h); conditions: 40 min, read-out: percentage of enzyme activity that remains
# IRAK1(h) = IRAK1(h) (Homo sapiens, UniProt P51617); assay: Upstate kinase activity inhibition assay IRAK1(h); conditions: 40 min, read-out: percentage of enzyme activity that remains
# MAPK2(h) = molecular target: T10, MAPK2(h) (Homo sapiens, UniProt P28482); assay: Upstate kinase activity inhibition assay MAPK2(h); assay type: biochemical; conditions: 40 min; read-out: percentage of enzyme activity that remains
# T10 construct: purchased Upstate (KinaseProfiler service)
# CDK9/cyclin T1(h) = molecular target: T11, CDK9/cyclin T1(h) (Homo sapiens, UniProt P50750); assay: Upstate kinase activity inhibition assay CDK9/cyclin T1(h); assay type: biochemical; conditions: 40 min; read-out: percentage of enzyme activity that remains
# T11 construct: purchased Upstate (KinaseProfiler service)
# BTK(h) = molecular target: T12, BTK(h) (Homo sapiens, UniProt Q06187); assay: Upstate kinase activity inhibition assay BTK(h); assay type: biochemical
# T12 construct: purchased Upstate (KinaseProfiler service)
# MST1(h) = molecular target: T13, MST1(h) (Homo sapiens, UniProt Q13043); assay: Upstate kinase activity inhibition assay MST1(h); assay type: biochemical
# T13 construct: purchased Upstate (KinaseProfiler service)
# CHK1(h) = CHK1(h) (Homo sapiens, UniProt O14757); assay: Upstate kinase activity inhibition assay CHK1(h)
# T2 sequence (P53667 whole entry): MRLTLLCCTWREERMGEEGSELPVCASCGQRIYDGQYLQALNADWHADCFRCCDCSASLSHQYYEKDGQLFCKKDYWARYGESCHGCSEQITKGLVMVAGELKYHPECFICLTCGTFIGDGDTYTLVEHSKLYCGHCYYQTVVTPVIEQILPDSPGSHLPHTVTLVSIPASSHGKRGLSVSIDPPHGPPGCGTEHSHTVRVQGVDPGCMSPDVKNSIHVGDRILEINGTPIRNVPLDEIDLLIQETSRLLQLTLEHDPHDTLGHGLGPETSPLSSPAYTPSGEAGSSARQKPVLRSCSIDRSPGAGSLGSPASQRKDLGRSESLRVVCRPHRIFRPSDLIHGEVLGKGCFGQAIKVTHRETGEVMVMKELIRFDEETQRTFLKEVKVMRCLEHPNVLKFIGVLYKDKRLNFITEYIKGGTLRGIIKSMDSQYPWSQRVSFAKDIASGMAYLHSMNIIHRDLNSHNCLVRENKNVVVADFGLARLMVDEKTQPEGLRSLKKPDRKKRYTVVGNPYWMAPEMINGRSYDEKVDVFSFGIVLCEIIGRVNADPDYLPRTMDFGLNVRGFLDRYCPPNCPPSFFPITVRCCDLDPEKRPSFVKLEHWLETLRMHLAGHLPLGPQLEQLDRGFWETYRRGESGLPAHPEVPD
# Chain of JNK2α2(h) (P45984 whole entry): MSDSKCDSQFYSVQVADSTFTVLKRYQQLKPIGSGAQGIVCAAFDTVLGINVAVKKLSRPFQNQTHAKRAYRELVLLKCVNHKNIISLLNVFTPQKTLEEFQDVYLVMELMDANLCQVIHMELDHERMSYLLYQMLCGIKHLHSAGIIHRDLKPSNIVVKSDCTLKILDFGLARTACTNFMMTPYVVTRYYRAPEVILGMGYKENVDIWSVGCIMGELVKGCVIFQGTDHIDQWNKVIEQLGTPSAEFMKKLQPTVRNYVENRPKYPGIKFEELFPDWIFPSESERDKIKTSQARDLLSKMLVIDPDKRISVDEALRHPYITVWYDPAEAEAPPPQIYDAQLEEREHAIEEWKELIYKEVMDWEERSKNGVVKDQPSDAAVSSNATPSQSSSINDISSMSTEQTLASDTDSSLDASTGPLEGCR
# T6 sequence (Q8N4C8 whole entry): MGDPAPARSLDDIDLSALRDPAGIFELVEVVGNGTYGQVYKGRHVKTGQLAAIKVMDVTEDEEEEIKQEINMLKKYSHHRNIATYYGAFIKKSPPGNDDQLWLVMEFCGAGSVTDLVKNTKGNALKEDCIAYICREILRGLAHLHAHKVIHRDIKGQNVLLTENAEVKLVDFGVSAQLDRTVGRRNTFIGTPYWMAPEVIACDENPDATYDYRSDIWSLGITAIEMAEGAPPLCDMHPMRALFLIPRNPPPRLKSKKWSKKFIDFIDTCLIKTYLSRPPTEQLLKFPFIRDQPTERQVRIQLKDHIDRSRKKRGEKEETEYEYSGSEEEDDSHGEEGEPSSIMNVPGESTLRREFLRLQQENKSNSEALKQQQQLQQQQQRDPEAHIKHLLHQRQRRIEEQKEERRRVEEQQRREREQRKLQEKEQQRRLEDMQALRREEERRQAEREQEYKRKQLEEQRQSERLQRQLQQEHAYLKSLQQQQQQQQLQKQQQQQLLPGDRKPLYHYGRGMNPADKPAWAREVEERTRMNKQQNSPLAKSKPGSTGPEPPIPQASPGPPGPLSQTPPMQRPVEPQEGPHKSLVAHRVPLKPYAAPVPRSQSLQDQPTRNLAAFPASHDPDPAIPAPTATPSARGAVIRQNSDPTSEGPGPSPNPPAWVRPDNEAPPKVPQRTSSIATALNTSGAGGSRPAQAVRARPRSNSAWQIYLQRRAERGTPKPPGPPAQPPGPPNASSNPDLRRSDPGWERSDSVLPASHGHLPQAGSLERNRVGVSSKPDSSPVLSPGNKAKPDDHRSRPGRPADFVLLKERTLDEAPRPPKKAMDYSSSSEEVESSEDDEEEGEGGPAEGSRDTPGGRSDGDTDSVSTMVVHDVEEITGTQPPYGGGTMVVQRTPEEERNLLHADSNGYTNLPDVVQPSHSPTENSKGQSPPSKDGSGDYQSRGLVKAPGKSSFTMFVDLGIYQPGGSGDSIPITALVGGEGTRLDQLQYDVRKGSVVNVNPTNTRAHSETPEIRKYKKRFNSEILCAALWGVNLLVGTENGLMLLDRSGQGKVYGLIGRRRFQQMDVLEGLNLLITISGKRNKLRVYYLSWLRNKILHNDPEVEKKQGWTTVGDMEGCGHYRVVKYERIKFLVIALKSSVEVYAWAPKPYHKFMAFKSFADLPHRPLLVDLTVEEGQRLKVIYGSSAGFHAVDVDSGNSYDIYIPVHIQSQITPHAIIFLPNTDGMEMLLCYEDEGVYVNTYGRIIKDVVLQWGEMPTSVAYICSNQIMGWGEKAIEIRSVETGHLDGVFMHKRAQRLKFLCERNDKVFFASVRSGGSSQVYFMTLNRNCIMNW
# Chain of Arg(h) (P42684 whole entry): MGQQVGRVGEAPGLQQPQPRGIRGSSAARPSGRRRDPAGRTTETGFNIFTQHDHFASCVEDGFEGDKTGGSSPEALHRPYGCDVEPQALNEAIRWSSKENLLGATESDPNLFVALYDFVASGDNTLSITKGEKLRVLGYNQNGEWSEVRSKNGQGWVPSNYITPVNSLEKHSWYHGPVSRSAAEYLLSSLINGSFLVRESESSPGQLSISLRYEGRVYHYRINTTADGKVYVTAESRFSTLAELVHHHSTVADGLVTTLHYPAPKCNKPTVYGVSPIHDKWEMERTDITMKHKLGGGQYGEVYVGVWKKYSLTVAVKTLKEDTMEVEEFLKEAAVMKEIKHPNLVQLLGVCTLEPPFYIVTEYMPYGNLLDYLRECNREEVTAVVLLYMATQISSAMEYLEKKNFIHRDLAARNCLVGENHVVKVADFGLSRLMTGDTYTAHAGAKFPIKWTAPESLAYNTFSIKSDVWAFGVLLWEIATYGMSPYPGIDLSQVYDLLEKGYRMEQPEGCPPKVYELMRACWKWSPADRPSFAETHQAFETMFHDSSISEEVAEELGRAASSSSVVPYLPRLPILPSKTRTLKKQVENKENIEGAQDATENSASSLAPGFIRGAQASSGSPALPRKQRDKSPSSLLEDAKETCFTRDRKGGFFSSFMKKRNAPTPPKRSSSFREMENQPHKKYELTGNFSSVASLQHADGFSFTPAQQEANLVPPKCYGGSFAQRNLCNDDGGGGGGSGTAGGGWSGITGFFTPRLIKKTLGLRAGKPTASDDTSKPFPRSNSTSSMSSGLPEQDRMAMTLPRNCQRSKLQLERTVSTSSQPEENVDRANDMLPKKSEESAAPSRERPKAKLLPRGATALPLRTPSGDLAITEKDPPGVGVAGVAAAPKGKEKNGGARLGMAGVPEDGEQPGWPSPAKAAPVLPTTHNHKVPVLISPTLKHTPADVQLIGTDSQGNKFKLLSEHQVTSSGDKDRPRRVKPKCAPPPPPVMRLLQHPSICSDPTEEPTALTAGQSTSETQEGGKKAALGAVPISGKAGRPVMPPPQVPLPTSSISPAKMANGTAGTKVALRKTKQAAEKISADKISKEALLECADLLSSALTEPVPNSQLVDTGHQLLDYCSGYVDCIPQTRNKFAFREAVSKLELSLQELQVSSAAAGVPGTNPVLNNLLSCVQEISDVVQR
# T12 sequence (Q06187 whole entry): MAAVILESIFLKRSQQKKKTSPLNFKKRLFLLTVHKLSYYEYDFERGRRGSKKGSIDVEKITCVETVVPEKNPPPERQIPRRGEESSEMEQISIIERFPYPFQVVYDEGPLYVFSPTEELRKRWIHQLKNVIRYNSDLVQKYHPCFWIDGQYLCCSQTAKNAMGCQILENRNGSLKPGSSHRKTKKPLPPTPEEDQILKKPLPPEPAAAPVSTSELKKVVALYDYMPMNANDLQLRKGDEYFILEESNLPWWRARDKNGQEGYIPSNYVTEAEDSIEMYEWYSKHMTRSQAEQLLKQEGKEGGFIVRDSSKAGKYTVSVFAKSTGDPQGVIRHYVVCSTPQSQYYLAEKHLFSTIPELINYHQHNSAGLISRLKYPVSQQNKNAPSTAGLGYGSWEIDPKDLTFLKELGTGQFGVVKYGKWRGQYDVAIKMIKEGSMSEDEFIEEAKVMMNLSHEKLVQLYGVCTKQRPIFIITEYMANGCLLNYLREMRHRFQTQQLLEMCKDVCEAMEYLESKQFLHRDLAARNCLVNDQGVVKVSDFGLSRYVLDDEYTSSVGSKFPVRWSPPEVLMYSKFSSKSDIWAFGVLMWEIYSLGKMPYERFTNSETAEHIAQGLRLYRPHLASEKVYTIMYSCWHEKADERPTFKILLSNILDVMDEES
# Chain of cSRC(h) (P12931 whole entry): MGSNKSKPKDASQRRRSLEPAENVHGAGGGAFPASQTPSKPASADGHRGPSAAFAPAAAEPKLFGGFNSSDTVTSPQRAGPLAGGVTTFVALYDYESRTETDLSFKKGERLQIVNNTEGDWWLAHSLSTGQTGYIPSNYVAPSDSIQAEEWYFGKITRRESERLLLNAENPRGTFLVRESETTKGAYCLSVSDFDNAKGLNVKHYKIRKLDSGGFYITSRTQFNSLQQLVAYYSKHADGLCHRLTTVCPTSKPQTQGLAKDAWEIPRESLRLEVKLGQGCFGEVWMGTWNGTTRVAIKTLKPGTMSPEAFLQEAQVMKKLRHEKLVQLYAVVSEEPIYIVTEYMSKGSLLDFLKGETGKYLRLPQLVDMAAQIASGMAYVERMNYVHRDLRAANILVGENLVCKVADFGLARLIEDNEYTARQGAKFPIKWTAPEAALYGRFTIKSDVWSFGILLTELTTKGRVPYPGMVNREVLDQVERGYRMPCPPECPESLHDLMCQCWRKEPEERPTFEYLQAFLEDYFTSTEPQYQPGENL
structure (smiles),measurement,setting,value
"Cc1cc(Nc2cc(N3CCN(C)CC3)nc(Sc3ccc(NC(=O)C4CC4)cc3)n2)n[nH]1 [Compound E, Cyclopropane carboxylic acid {4-[4-(4-methyl-piperazin-1-yl)-6-(5-methyl-2H-pyrazol-3-ylamino)-pyrimidin-2-ylsulphanyl]-phenyl}-amide]",remaining activity at 0.2 µM,Plk3(h),107%
same,remaining activity at 4 µM,Plk3(h),105%
same,remaining activity at 0.2 µM,EphA8(h),92%
same,remaining activity at 0.2 µM,PKCθ(h),25%
same,remaining activity at 4 µM,PKCθ(h),35%
same,remaining activity at 0.2 µM,LIMK1(h),71%
same,remaining activity at 4 µM,LIMK1(h),15%
same,remaining activity at 0.2 µM,BrSK1(h),115%
same,remaining activity at 4 µM,BrSK1(h),97%
same,remaining activity at 0.2 µM,PRAK(h),114%
same,remaining activity at 4 µM,PRAK(h),109%
same,remaining activity at 0.2 µM,CHK2(h),99%
same,remaining activity at 4 µM,CHK2(h),89%
same,remaining activity at 0.2 µM,CDK6/cyclinD3(h),103%
same,remaining activity at 4 µM,CDK6/cyclinD3(h),97%
same,remaining activity at 4 µM,Mnk2(h),96%
same,remaining activity at 0.2 µM,MSK2(h),117%
same,remaining activity at 4 µM,MSK2(h),97%
same,remaining activity at 0.2 µM,PKCι(h),100%
same,remaining activity at 4 µM,PKCι(h),78%
same,remaining activity at 0.2 µM,MINK(h),103%
same,remaining activity at 4 µM,MINK(h),82%
same,remaining activity at 0.2 µM,MLCK(h),95%
same,remaining activity at 4 µM,MLCK(h),88%
same,percentage of enzyme activity that remains,ITK(h),12%
same,remaining activity at 0.2 µM,Fms(h),139%
same,remaining activity at 4 µM,Fms(h),54%
same,percentage of enzyme activity that remains,JNK2α2(h); 0.2 μM Compound E,107%
same,percentage of enzyme activity that remains,JNK2α2(h); 4 μM Compound E,105%
same,remaining activity at 4 µM,Rsk1(h),89%
same,percentage of enzyme activity that remains,EphA5(h),57%
same,remaining activity at 0.2 µM,PDGFRα(h),87%
same,remaining activity at 0.2 µM,CK2(h),100%
same,remaining activity at 4 µM,CK2(h),93%
same,remaining activity at 0.2 µM,cKit(D816V)(h),89%
same,remaining activity at 4 µM,cKit(D816V)(h),79%
same,percentage of enzyme activity that remains,LOK(h); 0.2 μM Compound E,92%
same,percentage of enzyme activity that remains,LOK(h); 4 μM Compound E,37%
same,remaining activity at 0.2 µM,cSRC(h),87%
same,remaining activity at 4 µM,cSRC(h),25%
same,remaining activity at 0.2 µM,BRK(h),102%
same,remaining activity at 4 µM,BRK(h),83%
same,remaining activity at 0.2 µM,Arg(h),8%
same,remaining activity at 4 µM,Arg(h),-1%
same,remaining activity at 0.2 µM,IRAK1(h),107%
same,remaining activity at 4 µM,IRAK1(h),108%
same,remaining activity at 0.2 µM,MAPK2(h),92%
same,remaining activity at 0.2 µM,CDK9/cyclin T1(h),80%
same,remaining activity at 4 µM,CDK9/cyclin T1(h),84%
same,percentage of enzyme activity that remains,BTK(h); 0.2 μM Compound E,93%
same,percentage of enzyme activity that remains,BTK(h); 4 μM Compound E,49%
same,percentage of enzyme activity that remains,MST1(h); 0.2 μM Compound E,88%
same,percentage of enzyme activity that remains,MST1(h); 4 μM Compound E,38%
same,percentage of enzyme activity that remains,CHK1(h); 0.2 μM Compound E,99%
same,percentage of enzyme activity that remains,CHK1(h); 4 μM Compound E,92%
